Assay results taken from PubChem BioAssay (NCI).
Values joined by “and” are separate entries in the source; they are usually repeats but may differ in a detail not shown here. Identical values can stand only once.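 Cells were grown in 96-well plates and exposed to each compound for 48 hours at five concentrations; endpoints were interpolated linearly between bracketing concentrations, or set to the highest concentration if not reached. The concentration for 50% growth inhibition is given as GI50. TGI is the concentration that stops growth completely.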

Assays:
Assay in all cases: NCI-60 cell line screen, 48 h
DMS 114 small cell lung = system: DMS 114 small cell lung
PC-3 prostate = system: PC-3 prostate
OVCAR-8 ovarian = system: OVCAR-8 ovarian
HOP-62 NSCLC = system: HOP-62 NSCLC
DMS 273 small cell lung = system: DMS 273 small cell lung
SK-OV-3 ovarian = system: SK-OV-3 ovarian
CAKI-1 renal = system: CAKI-1 renal
EKVX NSCLC = system: EKVX NSCLC
MOLT-4 leukemia = system: MOLT-4 leukemia
SNB-75 CNS = system: SNB-75 CNS

SMILES | TGI (DMS 114 small cell lung) | TGI (PC-3 prostate) [µM] | TGI (OVCAR-8 ovarian) [µM] | TGI (HOP-62 NSCLC) | TGI (DMS 273 small cell lung) | TGI (SK-OV-3 ovarian) | TGI (CAKI-1 renal) | TGI (EKVX NSCLC) [µM] | TGI (MOLT-4 leukemia) | TGI (SNB-75 CNS) | GI50 (DMS 114 small cell lung) | GI50 (OVCAR-8 ovarian) | GI50 (HOP-62 NSCLC) | GI50 (DMS 273 small cell lung) [µM] | GI50 (SK-OV-3 ovarian) | GI50 (CAKI-1 renal) | GI50 (EKVX NSCLC) | GI50 (MOLT-4 leukemia) [µM] | GI50 (SNB-75 CNS)
CC(C)NC(=O)OCc1c(COC(=O)NC(C)C)c(-c2ccc(Cl)c(Cl)c2)n2c1CCC2 | 57.4 µM | > 100 | 73.4 | 62 µM | > 67 µM | > 76.8 µM | 42.2 µM | 69.6 | 34.8 µM | 61.7 µM | – | – | – | – | – | – | – | – | –
COc1ccc(-c2cc(-c3cc(C)ccc3O)[nH]c(=O)n2)cc1 | > 100 µM | – | > 100 | 76.4 µM | > 100 µM | > 100 µM | > 100 µM | > 100 | > 100 µM | 66.8 µM | – | – | – | – | – | – | – | – | –
O=C1OC(c2ccccc2)=N/C1=C\c1cc(Cl)ccc1Cl | > 100 µM | – | – | > 100 µM | – | – | – | > 100 | 53.7 µM | 36.3 µM | – | – | – | – | – | – | – | – | –
COC1OC(COS(=O)(=O)c2ccc(C)cc2)C(O)C(OS(=O)(=O)c2ccc(C)cc2)C1OS(=O)(=O)c1ccc(C)cc1 (configuration not stated) | > 100 µM | – | > 100 | > 100 µM | > 100 µM | > 100 µM | > 100 µM | > 100 | > 100 µM | > 100 µM | – | – | – | – | – | – | – | – | –
CCOC(=O)C(=O)Nc1c(C)cccc1C(C)C | > 100 µM | – | > 100 | > 100 µM | > 100 µM | > 100 µM | > 100 µM | > 100 | > 100 µM | > 100 µM | – | – | – | – | – | – | – | – | –
COC(=O)CS(=O)c1ccccc1 (configuration not stated) | 56.5 µM | – | 87.9 | 83.3 µM | 84.4 µM | > 100 µM | > 100 µM | > 100 | 41.4 µM | – | – | – | – | – | – | – | – | – | –
O=C(O)c1cccc2cccc(C(=O)O)c12.[Hg] | 21.5 µM | – | 46.2 | 35.3 µM | 31.4 µM | 33.9 µM | 53.8 µM | > 100 | 42.7 µM | 36.9 µM | 3.8 µM | 20.5 µM | 20.8 µM | 15.4 | 19.6 µM | 21.7 µM | > 100 µM | 19.6 | 18.9 µM
COC(=O)C1=C(CS(=O)c2ccc([N+](=O)[O-])cc2[N+](=O)[O-])ON(C)C1c1ccccc1 (configuration not stated) | > 66.4 µM | – | > 100 | > 100 µM | > 80.6 µM | > 100 µM | > 60.8 µM | > 100 | 48.5 µM | 77.6 µM | – | – | – | – | – | – | – | – | –
OCC1OC(n2cnc3c2NC=NC[C@H]3O)CC1O (some centres not stated) | 455 µM and > 588 µM | > 500 | 500 | 471 µM and > 588 µM | 500 µM and > 588 µM | 474 µM and > 588 µM | 495 µM and > 588 µM | 500 | 469 µM and > 588 µM | 498 µM and > 588 µM | > 588 µM | – | > 588 µM | > 588 | > 588 µM | 351 µM and > 588 µM | – | > 588 | > 588 µM
COC(=O)C(Cc1ccccc1)NC(=O)Cn1ccnc1[N+](=O)[O-] (configuration not stated) | > 100 µM | – | > 100 | > 100 µM | > 100 µM | > 100 µM | > 100 µM | > 100 | > 100 µM | > 100 µM | – | – | – | – | – | – | – | – | –
O=C1c2cc([N+](=O)[O-])cc3cc([N+](=O)[O-])cc(c23)C(=O)N1CCCNCCNCCCN1C(=O)c2cc([N+](=O)[O-])cc3cc([N+](=O)[O-])cc(c23)C1=O | 1.38 µM | 7.87 | 3.39 | 3.07 µM | 0.42 µM | 8.48 µM | 8.4 µM | 10 | 1.41 µM | 2.57 µM | – | – | – | – | – | – | – | – | –
NC(=O)Nc1c([N+](=O)[O-])cc(C(F)(F)F)cc1[N+](=O)[O-] | – | – | > 100 | > 100 µM | > 100 µM | – | > 100 µM | > 100 | > 100 µM | – | – | – | – | – | – | – | – | – | –
NCCCNCCSSC/C=C\CSSCCNCCCN | > 100 µM | – | > 100 | > 100 µM and 93.4 µM | > 100 µM | > 100 µM | > 100 µM | > 100 | 62 µM and 57.3 µM | > 100 µM | – | – | > 100 µM and 33.2 µM | – | – | – | – | – | –
Cc1ccc(C(=O)C#Cc2c[nH]c(=O)[nH]c2=O)cc1 | – | – | 25.1 | 87.7 µM | 38.6 µM | 73.6 µM | 30.5 µM | 31.4 | 23.8 µM | 34.4 µM | – | – | – | – | – | – | – | – | –
CSc1nc(C)c(Br)c(=O)n1C1OC(COC(C)=O)C(OC(C)=O)C(OC(C)=O)C1OC(C)=O (configuration not stated) | > 100 µM and 81 µM | – | > 100 | 72.3 µM and 43.9 µM | > 100 µM | > 100 µM | > 100 µM and 83.9 µM | > 100 | > 100 µM | 51.8 µM and 65.1 µM | > 100 µM and 25.5 µM | > 100 µM and 36 µM | – | – | > 91.7 µM and 42.3 µM | > 100 µM and 33.9 µM | > 100 µM and 42.9 µM | – | 10.5 µM and 26.5 µM
Brc1ccccc1C=NC12CC3CC(CC(C3)C1)C2 | > 100 µM | > 100 | > 100 | > 100 µM | > 100 µM | > 100 µM | > 100 µM | > 100 | > 91.1 µM | > 100 µM | – | – | – | – | – | – | – | – | –
